Test results taken from patent US9463188B2, “Osteopontin production inhibitor containing dictyopyrone derivative or dihydrodictyopyrone derivative as active ingredient” (TOHOKU UNIVERSITY, priority 2013, dated 2016).

Test system: OPN promoter in A549/OPNluc cells
Assay: Influence of mevalonic acid on suppression of luciferase activity under control of OPN promoter
Assay type: cell-based, human
Protocol: In order to determine whether the OPN production inhibitory effect of a dictyopyrone derivative or a dihydrodictyopyrone derivative contained as an active ingredient in the OPN production inhibitor according to the present invention is based on the same mechanism of action as a well-known statin-based drug for treatment of hypercholesteremia, simvastatin or the compound 3 was added to a culture liquid containing A549/OPNluc cells to determine its effect on gene expression under control of OPN promoter and to observe whether or not the effect was maintained even in the presence of mevalonic acid. […]
The solution in each well was mixed with a vortex mixer, and then the 96-well plate was incubated in a CO2 incubator (at 37° C. and 5% CO2) for 48±4 hours. […] After 30 min, 90 min, and 120 min, absorbance values (450 nm) were measured using a microplate reader (Bio-Rad; Benchmark or Thermo Scientific; Varioskan Flash).
The absorbance values were input into an Excel file, and the absorbance values of all the samples of each test group were divided by the average absorbance value of Control to determine the ratio of the absorbance value of each sample to the absorbance value of Control (Ratio to Control). Absorbance value of each sample÷absorbance value of Control=Ratio to Control […]

## CCCCCCCCCCCC(=O)[C@H]1C(=O)O[C@@H](C)C[C@@H]1C [Chemical formula 3]
Compound 3 25 μM + MVA (100 μM or 1 mM)
  luciferase activity under control of OPN promoter after addition of MVA: not recovered
Compound 3 25 μM, no MVA, corrected by WST Ratio to Control
  luciferase activity under control of OPN promoter: suppression of luciferase activity
